SMILES strings stand for the structures. pIC50: −log10 of the molar value.

The series can be described thus: Inhibition of MK-499 binding to hERG.
A word on the pIC50: it is −log10 of the IC50, conventionally taken in molar units. Read a low pIC50 as a large IC50. Compound `O=C(Nc1ccc(F)cc1)C1(c2ccc(-c3cnc(C(F)(F)F)cc3CO)cc2)CC(F)(F)C1` had a pIC50 of 5.21.

With `CC(C)(O)c1cc(C(F)(F)F)ncc1-c1ccc(C2(C(=O)Nc3ccc(F)cc3)COC2)cc1`, the pIC50 is 4.67.

As to `Cc1cc(C(F)(F)F)ncc1-c1ccc(C2(C(=O)Nc3ccc(F)cc3)COC2)cc1`, the pIC50 was 5.65.

Compound `Cc1cc(C2CC2)ncc1-c1ccc(C2(C(=O)Nc3ccc(F)cc3)COC2)cc1` had a pIC50 of 4.80.

`O=C(Nc1ccc(F)cc1)C1(c2ccc(-c3ccc(C4CC4)nc3)cc2)COC1` showed a pIC50 of 4.87.

These data come from BindingDB's records for PubMed 35239336 (Pharmaron Beijing Co., Ltd., 2022).
